Measurements published in patent US20210022339A1, “USE OF DELAYED DORMANT APPLICATIONS OF HOMOBRASSINOLIDE ON GRAPES TO ENHANCE BUD BREAK” (priority 2019, published 2021).
“Also recorded” adds a separate entry of the source. Like-named read-outs stand apart in the source and are kept apart here.

Tests used:
laboratory animals = settings: cited from earlier work; for toxicity: in vivo
Thompson Seedless Grapes [1] = settings: grapes and other fruit crops; cited from earlier work
nearby crops = settings: in vivo; cited from earlier work
Thompson Seedless Grapes [2] = test: Percentage bud break on renewal spurs, vineyard trial; format: in vivo, Vitis; settings: by 41 DAA
Description: (§1) A portion of an established commercial vineyard was used for the study. The HBR (FIG. 1) treatments were replicated down a single row and arranged in sets of 3 vines per plot. Plots were flagged with colored ribbon to identify the treatments and there were 4 replicates each. Spray applications were made when the vines were still dormant on Day 0 (Feb. 12, 2019) or during the delayed dormant period, when buds were swollen or at eraser stage, on Day 24 (Mar. 8, 2019)). […] Crop injury was rated using a scale of 0-10, where 0=no injury and 10=100% of tree injured. Percentage bud break was evaluated by counting numbers of shoots from 30 nodes on fruiting canes from trunk to trunk and 5 renewal spurs were chosen non-systematically on Day 34 (Mar. 18, 2019) and Day 41 (Mar. 25, 2019).
However, the results were statistically significant between the rest breaking treatments as a group compared to the untreated check at both evaluation intervals. […] It appeared that spur bud break had peaked by 34 DAA because by 41 DAA, percentages were mostly the same. Only the untreated check continued to break buds, which remained approximately 15% lower than the rest breaking treatments as a group.

vines = settings: cited from earlier work
[3] = label for 0.1% HBR; SDS from Alzchem; cited from earlier work
Thompson Seedless Grapes [4] = test: Percentage bud break on fruiting canes, vineyard trial; format: in vivo, Vitis; settings: for bud break on fruiting canes, efficacy: compared to the untreated check
Description: as §1
Statistical differences were highly significant and variability in the data was low. Having waited until approximately 55 chill portions (a quantification of the aggregate low temperature exposure needed for a crop to break dormancy), the dormant sprays allowed both the Hydrogen Cyanamide (Dormex®) treated and untreated vines to accumulate the maximum chilling. […] Uniformity was enhanced by both Dormex® and 5 ppm ai HBR applied as a dormant spray. Variability was lowest in the untreated check by 41 DAA even though bud break had not reached 90%. It is not unusual for bud break to exceed 100% because secondary shoots were stimulated by the effects of overcoming apical dominance by both effective rest breaking and the accumulation of maximum chilling by untreated vines. FIGS. 6 and 7.

Thompson Seedless Grapes [5] = test: Number of shoots (overcoming apical dominance); format: in vivo, Vitis
Description: as §1

Thompson Seedless Grapes [6] = test: Crop injury / phytotoxicity observation; parameters: species or system Vitis; settings: in vivo
Description: as §1

Thompson Seedless Grapes [7] = test: Fruit growth uniformity; parameters: species or system Vitis; settings: in vivo

N#CN [Dormex, Hydrogen Cyanamide, reference compound]
adverse effects in laboratory animals (laboratory animals; California EPA Department of Pesticide Regulation study): causes adverse effects in the liver, thyroid, kidney, ovaries, and testes | toxicity (laboratory animals): reported toxicity due to acute exposure; also recorded: can be acutely toxic when misused | phytotoxicity (Thompson Seedless Grapes [1]): can be phytotoxic | effect on nearby crops (nearby crops): can damage nearby crops | spur bud break (Thompson Seedless Grapes [2]): < 100% | lowering of the fruitability of vines (vines; repeated use over the years): 20-30 % per year | biodegradability [3]: not readily biodegradable | bud break uniformity (Thompson Seedless Grapes [4]; Dormex standard rate, dormant spray): enhanced | amount needed to approach the effect of HBR, times (Thompson Seedless Grapes [4]; in vivo): approximately 20,000 times

CC[C@@H](C(C)C)C(O)C(O)[C@@H](C)[C@H]1CC[C@H]2[C@@H]3COC(=O)[C@H]4C[C@H](O)[C@H](O)C[C@]4(C)[C@H]3CC[C@]12C (stereo in doubt) [HBR, homobrassinolide]
shoots compared to control (Thompson Seedless Grapes [5]; 1 ppm ai): increased shoots compared to control | shoots compared to control (Thompson Seedless Grapes [5]; 2 ppm ai): increased shoots compared to control | shoots compared to control (Thompson Seedless Grapes [5]; 5 ppm ai): increased shoots compared to control | shoots compared to the standard treatment (Thompson Seedless Grapes [5]; both 1 ppm ai and 1 ppm ai treatments (so in the source)): comparable to the Hydrogen Cyanamide standard treatment | number of shoots (Thompson Seedless Grapes [5]; either dormant or delayed dormant spray applications): increased number of shoots | toxicity (laboratory animals): non-toxic mode of action | crop injury (Thompson Seedless Grapes [6]): without crop injury | phytotoxicity (Thompson Seedless Grapes [6]): non-phytotoxic | effect on nearby crops (nearby crops): no evidence that HBR has harmful effects on nearby crops | fruit growth uniformity (Thompson Seedless Grapes [7]): enhance fruit growth uniformity | spur bud break, effects (Thompson Seedless Grapes [2]; 2 ppm ai applied at bud swell): equivalent to the untreated check | lowering of the fruitability of vines (vines; in vivo): no such effect | bud break on fruiting canes, efficacy (Thompson Seedless Grapes [4]; 1 ppm ai applied at early bud swell): as effective as the standard rate of Dormex | bud break on fruiting canes, efficacy (Thompson Seedless Grapes [4]; 2 ppm ai applied at early bud swell): as effective as the standard rate of Dormex | bud break uniformity (Thompson Seedless Grapes [4]; 5 ppm ai applied as a dormant spray): enhanced | bud break on fruiting canes, effects (Thompson Seedless Grapes [4]; 5 ppm applied delayed dormant, 34 DAA): statistically equivalent to the untreated check | active concentration range (Thompson Seedless Grapes [4]; in vivo): nano molar to pico molar range
